The source of these data is patent publication US11840495B2, “Compositions and methods related to di-substituted bicyclo[2.2.1] heptanamine-containing compounds” (The Broad Institute, Inc., priority 2020, dated 2023).

Broadly, the EC50 is the concentration at which the effect is half-maximal. The term IC50 denotes the concentration that gives 50% inhibition.

The structures appear in SMILES notation. Read-outs that look alike come from different tables or passages of the source.

Common to all, as to format: cell-based
The test system of assay [1] is NUCB1. Nature of the assay: Automated fixation/staining imaging assay, NUCB1 intensity (Example 3). The settings on record: 48 hour treatment time; for NUCB1 Intensity Avg Emax: in % (unit assumed). The source says: (§1) Prepared Renal Life Media by adding the supplements provided in the kit, substituting the FBS provided with Tet system approved FBS, and filtering the media (not including provided kit antibiotics). Thawed P6 vial(s) into T175 flasks 2 weeks prior to screening. Cells have to be passaged at least once after thaw before they can be used for screening. Hyperflasks can be used depending on the cell number needed. One confluent T175 flask should give at least 25 million cells. Cells should not be split beyond 1:2-1:4 and should only be trypsinized 1×/week. Cells must be spun down after each typsinization. Flasks must be confluent at time of plating. Flasks were incubated at 37° C., 5% CO2, 98% humidity. Cells can only be cultured for up to 10 passages before a new vial will need to be thawed.
(§2) • Day 1: Cells are plated. • Day 2: Compounds are transferred into assay plates with Echo (24 hours post-seeding) • Day 3: Begin preparing reagents for fixation and staining. • Day 4: Plates are fixed and stained (48 hour treatment time) on automated system and subsequently imaged on Opera Phenix. • Day 5: Data analysis and reporting is performed. Plate Preparation:
(§3) Calculated cell number needed and media volume needed for the run (MAX 20 plates/run). Cells were seeded into Synthemax-coated 384-well Cell Carrier plates at a density of 12,000 cells/well in 40 ul of Renal Life Media/well. Calculated for an extra 2-3 plate volumes to account for volume needed to fill the Combi cassette lines and left dead volume of cell suspension. (20 ul added with Combi after compound addition for total 60 ul assay volume, due to volume constraints of Echo transfer process). Trypsinized cells with 3 ml/T175 flask of TrypLE™ Express Enzyme 1X. Then spun down cells and resuspend in 10 ml media. Counted the cells using Nexcelom Cellometer K2. Prepared a mixture of 20 ul cell suspension/20 ul Cellometer AOPI Stain (#CS2-0106) and then add 20 ul of the 2 fold diluted mixture onto a Cellometer slide. Counted the cells by using the Dual Stain option and following the prompts. Recorded the live cell density, viability, and current passage number and date in notebook. Used the live cell density in calculating how to prepare the cell seeding suspension. Mixed the cell suspension thoroughly but gently. Once Combi cassette cleaned and cell suspension was made, dispensed 40 ul of cell suspension per well into the Synthemax-coated Cell Carrier assay plates. Immediately after seeding, stored the assay plates in the Liconic Incubator on the enclosed system in the 3100 automation lab, spaced plates out every other slot in stackers to maximize air flow.
(§4) Generated Arxspan Run ID to record compound transfer in CBIP. Spun down compound plates and assay plates 2000 RPM 10 sec. Load assay plates into Echo system incubator. Coordinated plate locations and record RUN ID with automation team member. Ran protocol for 100 nl transfer according to designated plate layout/template. When run was completed, added 20 ul of media/well for all assay plates with Combi in hood in Tissue culture room. Returned plates to the incubator in the enclosed system for 48 hour treatment time.
(§5) Heated up solution (100° C. on stir plate) and dissolved Roche Blocking reagent by stirring. The resulting solution was cloudy. Stored at 4° C. and used within one week or froze aliquots at −20° C. Combi 4: 1° Antibody Cocktail: Prepared the day of experiment. Swirled to mix. […] Prepared solution in Corning 250 ml conical flask and covered with tinfoil to protect from light.
(§6) Combi 5: 2° Antibody Cocktail: Prepared the day of experiment. Swirlrf to mix. […] Prepared solution in Corning 250 ml conical flask and covered with tinfoil to protect from light.
(§7) Removed media using BioTek plate washer. (PEKASP62) Moved plates to Combi. Combi 1. Dispensed 40 μl of 4% PFA (Combi on MEDIUM Speed). Incubated plates 20 minutes. Washed two times on BioTek plate washer. (PEK26X2)
(§8) Moved plates to Combi. Combi 2. […]

Assay [2] relates to FS MUC1. In words: Automated fixation/staining imaging assay, FS MUC1 spot cytoplasm (Example 3). As to conditions: 48 hour treatment time; for FS MUC1 Spot Cytoplasm Avg Emax: in % (unit assumed).
From the text: as §1, §2, §3, §4, §5, §6, §7, §8

The subject of assay [3] is MUC1-fs. In words: Immunofluorescence imaging of MUC1-fs in P cells (Example 2). The settings on record: for EC50: 48 hr incubation, MUC1-fs; for ECMax (%) / Emax: 48 hr; for ECMax (%): DMSO = 0, JQ1 (250 nM) = −100% activity; for Emax: DMSO = 0, JQ1 = −100% activity, in %. In short, it runs like this:
(§9)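 P cells were treated for 48 h with 5-dose (35–0.0035 μM) or 10-dose (16–0.0008 μM) series, in duplicate. Fixed cells were immunostained for MUC1-fs, MUC1-wt, GM130 and Hoechst nuclei. Per-cell cytoplasmic intensity was normalized with DMSO as 0% and JQ1 (250 nM) as −100%; cell number was normalized to DMSO.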

Assay [4] has as its system MUC1-wt. Nature of the assay: Immunofluorescence imaging of MUC1-wt in P cells (Example 2). As to conditions: for EC50: 48 hr incubation, MUC1-wt; for WT ECMax (%) / WT EMax: 48 hr; for WT ECMax (%): DMSO = 0, JQ1 (250 nM) = −100% activity; for WT EMax: DMSO = 0, JQ1 = −100% activity, in %. Summed up: as §9

On to `CC(C)[C@@H]1[C@@H]2CC[C@@H](C2)[C@]1(C)N` (single isomer, unassigned) [Compound 258], for which, in assay [1], the 50% effective concentration (EC50) came out at 9.77 µM and the “NUCB1 Intensity Avg Emax” value is −89.37. Besides, in assay [2], it took 5.87 µM to reach half-maximal inhibition (IC50) and the “FS MUC1 Spot Cytoplasm Avg Emax” value is −67.73.
Take `CC(C)[C@@H]1[C@H]2CC[C@H](C2)[C@@]1(C)N` (racemic) [Compound 256]: in assay [2], the 50% inhibitory concentration (IC50) was 6.45 µM and the “FS MUC1 Spot Cytoplasm Avg Emax” value is −65.11.
The like results for `CC(C)[C@@H]1[C@H]2CC[C@H](C2)[C@@]1(C)N` (single isomer, unassigned) [Compound 257] were, in that order, 0.0969 µM and −74.94.
Consider `CC(C)[C@H]1[C@@H]2CC[C@@H](C2)[C@]1(C)N` (single isomer, unassigned) [Compound 259], for which, in assay [1], the EC50 came out at 14.6 µM and the “NUCB1 Intensity Avg Emax” value was −53. Besides, in assay [2], half-maximal inhibition (IC50) was put at 2.94 µM and the “FS MUC1 Spot Cytoplasm Avg Emax” value is −59.03.
Regarding `CC(C)[C@H]1[C@H]2CC[C@H](C2)[C@]1(C)N` (single isomer, unassigned) [Compound 251], in assay [2], the half-maximal inhibitory concentration (IC50) stood at 0.24 µM and the “FS MUC1 Spot Cytoplasm Avg Emax” value is given as −72.07.
For the molecule `N[C@]1(c2ccccc2)[C@@H]2CC[C@@H](C2)C12CCCC2` (racemic) [Compound 252], in assay [1], the EC50 is 11.2 µM and the “NUCB1 Intensity Avg Emax” value was −72.37. For the same molecule, in assay [2], the 50% inhibitory concentration (IC50) stood at 7.83 µM and the “FS MUC1 Spot Cytoplasm Avg Emax” value was −86.32.
In the case of `CC(C)[C@H]1[C@H]2CC[C@H](C2)[C@@]1(C)N` (racemic) [Compound 254], in assay [2], half-maximal inhibition (IC50) was put at 8.52 µM and the “FS MUC1 Spot Cytoplasm Avg Emax” value is given as −69.07.
The corresponding values for `CC(C)[C@H]1[C@H]2CC[C@H](C2)[C@]1(C)N` (racemic) [Compound 255] are 8.25 µM and −67.5.
For the molecule `C[C@]1(N)C[C@H]2CC[C@@H]1C2` (single isomer, unassigned) [Compound 253], the “NUCB1 Intensity Avg Emax” value in assay [1] was −21.51. Further, in assay [2], the IC50 is 8.58 µM and the “FS MUC1 Spot Cytoplasm Avg Emax” value is −52.28.
As to `CCCCC1(C)C2CCC(C2)C1N` (stereo not drawn) [Compound 206-P2], the EC50 in assay [3] (read-out: EC50(Spot)) and in assay [4] (read-out: WT EC50 (Cytoplasm)) was more than 32 µM each time. Further, the “ECMax (%)” value in assay [3] was −10.5%. Moreover, the “WT ECMax (%)” value in assay [4] is −3.86%.
With `Cl.NC1C2CCC(C2)C12CCOCC2` (racemic) [Compound 235, rac-tetrahydrospiro[bicyclo[2.2.1]heptane-2,4′-pyran]-3-amine hydrochloride], the half-maximal effective concentration (EC50) in assay [3] (read-out: EC50) is 1.77 µM; in assay [4] (read-out: WT EC50), more than 16 µM. This molecule also came in with an Emax in assay [3] of −88.6. In addition, in assay [4], the “WT EMax” value was −6.6.
The corresponding values for `Cl.N[C@@H]1[C@@H]2CC[C@@H](C2)C12CC1CCC2CC1` (stereo partly drawn) [Compound 239, (1S,3R,4R)-spiro[bicyclo[2.2.1]heptane-2,2′-bicyclo[2.2.2]octan]-3-amine hydrochloride] are 2.29 µM, 13.5 µM, −83.1 and 62.7.
With `CCC1(CC)[C@@H]2CC[C@@H](C2)[C@@H]1N` [Compound 204-P2], the concentration giving a half-maximal response (EC50) worked out at 0.02 µM in assay [3] (read-out: EC50(Spot)) and 1.09 µM in assay [4] (read-out: WT EC50 (Cytoplasm)). Further, the “ECMax (%)” value in assay [3] is given as −90.34%. Besides, the “WT ECMax (%)” value in assay [4] came out at 65.02%.
Turning to `COCC1CCCC2(C1)C1CCC(C1)C2N.Cl` (racemic) [Compound 225-2, rac-3′-(methoxymethyl)spiro[bicyclo[2.2.1]heptane-2,1′-cyclohexan]-3-amine hydrogen chloride], the EC50 in assay [3] (read-out: EC50) was 10.1 µM; in assay [4] (read-out: WT EC50) it was more than 16 µM. The Emax in assay [3] was −20.7. In assay [4], the “WT EMax” value is recorded as −11.1.
The like results for `CC[C@@]1(Cc2ccccc2)[C@@H]2CC[C@@H](C2)[C@@H]1N.Cl` [Compound 219-P2, (1S,2S,3R,4R)-3-benzyl-3-ethylbicyclo[2.2.1]heptan-2-amine hydrochloride] were, in that order, more than 16 µM, more than 16 µM, −10.3 and 11.3.
The like results for `CC[C@]1(Cc2ccccc2)[C@H]2CC[C@H](C2)[C@H]1N.Cl` [Compound 219-P1, (1R,2R,3S,4S)-3-benzyl-3-ethylbicyclo[2.2.1]heptan-2-amine hydrochloride] were, in that order, more than 16 µM, more than 16 µM, 5.6 and 12.4.
Consider `CCCC1(CCC)[C@H]2CC[C@H](C2)[C@H]1N.Cl` (racemic) [Compound 205], for which the half-maximal effective concentration (EC50) in assay [3] (read-out: EC50(Spot)) and in assay [4] (read-out: WT EC50 (Cytoplasm)) was more than 32 µM in each case. Further, in assay [3], the “ECMax (%)” value was −3.08%. Moreover, the “WT ECMax (%)” value in assay [4] is on record as −12.24%.
As to `CC1(N)C2CCC(C2)C12CCCC2` (racemic) [Compound 233, rac-3-methylspiro[bicyclo[2.2.1]heptane-2,1′-cyclopentan]-3-amine], the EC50 in assay [3] (read-out: EC50) is 0.077 µM; in assay [4] (read-out: WT EC50) it was more than 16 µM. In addition, the Emax in assay [3] was −86.9. Further, the “WT EMax” value in assay [4] was 21.8.
`CCC1(CC)[C@H]2CC[C@H](C2)[C@H]1N.Cl` (racemic) [Compound 204]: the EC50 turned out to be 0.01 µM in assay [3] (read-out: EC50(Spot)) and 1.01 µM in assay [4] (read-out: WT EC50 (Cytoplasm)). Moreover, in assay [3], the “ECMax (%)” value was −85.02%. For the same molecule, the “WT ECMax (%)” value in assay [4] worked out at 190.26%.
With `NC1C2CCC(C2)C12CCCC2` (racemic) [Compound 232, rac-spiro[bicyclo[2.2.1]heptane-2,1′-cyclopentan]-3-amine], the EC50 in assay [3] (read-out: EC50) was 5.99 µM; in assay [4] (read-out: WT EC50), more than 16 µM. This molecule registered an Emax in assay [3] of −68.6. The “WT EMax” value in assay [4] came to 6.6.
`C[C@H]1CC[C@@]2(C1)[C@@H]1CC[C@@H](C1)[C@@H]2N.Cl` [Compound 211-P2-A]: the results for the EC50 in assay [3] (read-out: EC50(Spot)) and in assay [4] (read-out: WT EC50 (Cytoplasm)) were 20.1 µM and more than 32 µM, respectively. In addition, in assay [3], the “ECMax (%)” value is recorded as −23.56%. For the same molecule, in assay [4], the “WT ECMax (%)” value is 3.22%.
On to `CCC1(CC)[C@H]2CC[C@H](C2)[C@]1(N)c1cccs1.Cl` [Compound 247, (1R,2R,4S)-3,3-diethyl-2-(thiophen-2-yl)bicyclo[2.2.1]heptan-2-amine hydrochloride], for which the EC50 in assay [3] (read-out: EC50) and in assay [4] (read-out: WT EC50) was more than 16 µM in each case. The Emax in assay [3] is on record as −45.8. The “WT EMax” value in assay [4] was 5.7.
Take `NC1C2CCC(C2)C12CCC(O)C2` (racemic) [Compound 249C, rac-3-aminospiro[bicyclo[2.2.1]heptane-2,1′-cyclopentan]-3′-ol]: the concentration giving a half-maximal response (EC50) in assay [3] (read-out: EC50) is 6.38 µM; in assay [4] (read-out: WT EC50), more than 16 µM. For the same molecule, the Emax in assay [3] is on record as −74.4. Besides, in assay [4], the “WT EMax” value is on record as −11.9.
